Measurements published in PubChem BioAssay (NCI).
Several values for one entry are separate records, joined by “and”; a condition that tells them apart may be missing. Equal values may be shown once.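 Cultured in 96-well plates, cells were exposed to test compound for 48 hours across five concentrations. At the GI50, growth is halved. TGI: total growth inhibition.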

How the values were obtained:
Test in all cases: inhibition of tumour cell growth, NCI panel, 48 h
HOP-92 NSCLC = tested on: HOP-92 NSCLC
HCT-116 colon = tested on: HCT-116 colon
UO-31 renal = tested on: UO-31 renal
SNB-19 CNS = tested on: SNB-19 CNS
LOX IMVI melanoma = tested on: LOX IMVI melanoma
NCI-H23 lung = tested on: NCI-H23 lung
SR leukemia = tested on: SR leukemia
786-0 renal = tested on: 786-0 renal
SF-539 CNS = tested on: SF-539 CNS
PC-3 prostate = tested on: PC-3 prostate

| Structure (SMILES) | GI50 (HOP-92 NSCLC) | TGI (HOP-92 NSCLC) | GI50 (HCT-116 colon) [nM] | TGI (HCT-116 colon) [nM] | GI50 (UO-31 renal) [nM] | TGI (UO-31 renal) [nM] | GI50 (SNB-19 CNS) [nM] | TGI (SNB-19 CNS) [nM] | GI50 (LOX IMVI melanoma) [nM] | TGI (LOX IMVI melanoma) [nM] | GI50 (NCI-H23 lung) [nM] | TGI (NCI-H23 lung) [nM] | GI50 (SR leukemia) [nM] | TGI (SR leukemia) [nM] | GI50 (786-0 renal) | TGI (786-0 renal) | GI50 (SF-539 CNS) [nM] | TGI (SF-539 CNS) [nM] | GI50 (PC-3 prostate) [nM] | TGI (PC-3 prostate) [nM] |
| --- | --- | --- | --- | --- | --- | --- | --- | --- | --- | --- | --- | --- | --- | --- | --- | --- | --- | --- | --- | --- |
| COC(=O)[C@H](Cc1cn(C)cn1)NC(=O)[C@H](CC(C)C)NC(=O)Nc1cc(C(F)(F)F)cc(C(F)(F)F)c1 | > 10000 nM | > 10000 nM | 2140 | 4140 | > 10000 | > 10000 | > 10000 | > 10000 | 4890 | > 10000 | > 10000 | > 10000 | 2590 | 8410 | > 10000 nM | > 10000 nM | > 10000 | > 10000 | 4640 | > 10000 |
| CCOc1ccc(-c2nc3ccc(-c4nc5ccc(N6CCN(C)CC6)cc5[nH]4)cc3[nH]2)cc1 | 213 nM and 91.3 nM | 2270 nM and 1520 nM | 39.7 | 260 | 2540 | 7700 | 448 | 1730 | 188 | 485 | 288 | 1440 | 311 | 2670 | 527 nM and 198 nM | 1570 nM and 809 nM | 689 | 2000 | 352 | 6190 |
| CCCCCN(CCCCC)CCC[C@@H](C)[C@H]1CC[C@H]2[C@@H]3[C@H](OCCCN)C[C@@H]4C[C@H](OCCCN)CC[C@]4(C)[C@H]3C[C@H](OCCCN)[C@]12C | 680 nM | 6450 nM | 2400 | 14700 | 14100 | 51700 | 7900 | 24300 | 2160 | 10200 | 4360 | 20600 | 2380 | 9280 | 8260 nM | 24000 nM | 1940 | 4300 | 11600 | 24800 |
| O=CN/C=C/c1ccccc1 |  | > 100000 nM |  | > 100000 |  | > 100000 |  | > 100000 |  | > 100000 |  | > 100000 |  | > 100000 |  | > 100000 nM |  | > 100000 |  | > 100000 |
| NC(=O)c1cn(C2CC(O)C(CO)O2)c2ncnc(N)c12 (stereo not given) | 429 nM | 13600 nM | 4100 | > 100000 | 1840 | 18500 | 7000 | 45500 | 1200 | 4430 | 2500 | 18800 | 6600 | > 100000 | 4150 nM | 18900 nM | 3340 | 15100 | 1570 | > 35400 |
| CC1(C)C(=O)/C=C\C(=O)C(C)(C)C2=CC=C(O2)C(C)(C)C(=O)C(Br)C(Br)C(=O)C(C)(C)C2=CC=C1O2 (stereo not given) |  | > 100000 nM |  | 65600 |  | > 100000 |  | > 100000 |  | > 59600 |  | > 100000 |  | 5620 |  | > 100000 nM |  | > 100000 |  | > 100000 |
| O=C(Nc1ccc(Cl)c(C(F)(F)F)c1)Nc1ccc(-c2cccnc2)cc1N1CCC(CO)CC1 | 2220 nM | 5600 nM | 2530 | 6900 | 2430 | > 100000 | 3890 | > 100000 | 1920 | 3660 | 2780 | 9550 | 3490 | > 100000 | 1840 nM | 4520 nM | 2290 | 5840 | 1870 | 5370 |
| Cc1nnn(C)c1-c1cnc2c3ccc(C(C)(C)O)cc3n([C@H](c3ccccc3)C3CCOCC3)c2c1 | < 10 nM | 22700 nM | 14.9 | 16400 | < 10 | 13400 | 39.5 | > 100000 | < 10 | 1520 | 158 | 34100 | < 10 | > 100000 | 70.7 nM | 21500 nM | < 18.2 | 51100 | 765 | > 100000 |
| COc1cccc2c1C(=O)c1c(O)c3c(c(O)c1C2=O)C[C@](O)(C(=O)CO)C[C@H]3O[C@@H]1C[C@@H](NC(=O)CCCN(C)C2(c3ccc(F)cc3)CC3CCC2C3)[C@H](O)[C@@H](C)O1 (stereo not given in full) | 3620 nM | 11100 nM | 742 | 1470 | 6230 | 14500 | 900 | 2190 | 734 | 1450 | 829 | 1710 | 311 | 1520 | 801 nM | 1570 nM | 846 | 1560 | 1180 | 3110 |
| CC(C)(C)c1cc(C[P+](c2ccccc2)(c2ccccc2)c2ccccc2)cc(C(C)(C)C)c1O | 155 nM | 555 nM | 275 | 10200 | 2280 | 7140 | 354 | 13800 | 457 | 1890 | 365 | 8210 | 403 | 2500 | 1810 nM | 9730 nM | 854 | 7830 | 278 | 1910 |
| CCOc1ccccc1/C=N\N=C(N/N=C/c1ccccc1OCC)N/N=C/c1ccccc1OCC | 1240 nM | 5630 nM | 763 | > 100000 | 1730 | > 100000 | 2200 | > 100000 | 1800 | > 100000 | 2770 | > 100000 | 3230 | > 100000 | 2710 nM | > 100000 nM | 2410 | > 100000 | 2060 | > 100000 |
| Nc1nc(Sc2ccc([N+](=O)[O-])c3nonc23)c2ncn(C3OC(CO)C(O)C3O)c2n1 (stereo not given) | 514 nM | 18100 nM | 428 | 13600 | 902 | 43600 | > 63500 | > 100000 | 221 | 2760 | 1340 | 13900 | 113 | > 41200 | 766 nM | 14200 nM | 738 | > 37200 | 3240 | 26600 |
